Test results from US8470837B2, “MAPK/ERK kinase inhibitors” (Takeda Pharmaceutical Company Limted, priority 2006, dated 2013).
pIC50: −log10 of the molar value.

Target: MEK1 (Homo sapiens, UniProt Q02750, DEL30-49/S218E/S222D)
Assay: MEK1 inhibition, fluorescence polarization assay with IMAP beads (ERK1 / FI-Erktide coupled)

Chain of MEK1 (Q02750 with tags, fused parts or gaps DEL30-49/S218E/S222D): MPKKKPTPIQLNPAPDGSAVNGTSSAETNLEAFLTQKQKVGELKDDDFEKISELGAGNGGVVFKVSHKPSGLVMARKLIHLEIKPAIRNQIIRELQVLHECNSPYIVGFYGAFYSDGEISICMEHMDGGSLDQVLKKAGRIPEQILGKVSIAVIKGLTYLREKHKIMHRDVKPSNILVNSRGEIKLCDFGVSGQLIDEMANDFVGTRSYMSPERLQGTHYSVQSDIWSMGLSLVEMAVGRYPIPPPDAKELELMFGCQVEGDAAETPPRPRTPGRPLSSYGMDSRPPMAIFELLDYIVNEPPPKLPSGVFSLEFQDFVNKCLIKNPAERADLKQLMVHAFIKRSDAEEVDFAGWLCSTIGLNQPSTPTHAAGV

Row | SMILES | pIC50
1 | COC(=O)Cn1cnc2c(c(Nc3ccc(I)cc3F)cc(=O)n2C)c1=O [Example 3, Methyl 2-(5-(2-fluoro-4-iodophenylamino)-8-methyl-4,7-dioxo-7,8-dihydropyrido[2,3-d]pyrimidin-3(4H)-yl)acetate] | ≤ 7.80
2 | Cn1c(=O)c(Cl)c(Nc2ccc(I)cc2F)c2c(=O)n(C[C@H](O)CO)cnc21 [Example 7, (S)-6-Chloro-3-(2,3-dihydroxypropyl)-5-(2-fluoro-4-iodophenylamino)-8-methylpyrido[2,3-d]pyrimidine-4,7(3H,8H)-dione] | ≥ 8.30
3 | Cc1c(Nc2ccc(Br)cc2F)c2c(=O)n(C[C@H](O)CO)cnc2n(C)c1=O [Example 9, (S)-5-(4-Bromo-2-fluorophenylamino)-3-(2,3-dihydroxypropyl)-6,8-dimethylpyrido[2,3-d]pyrimidine-4,7(3H,8H)-dione] | ≤ 7.80
4 | Cc1c(Nc2ccc(Br)cc2F)c2c(=O)n(C[C@@H](O)CO)cnc2n(C)c1=O [Example 10, (R)-5-(4-Bromo-2-fluorophenylamino)-3-(2,3-dihydroxypropyl)-6,8-dimethylpyrido[2,3-d]pyrimidine-4,7(3H,8H)-dione] | ≤ 7.80
5 | C#Cc1ccc(Nc2c(C)c(=O)n(C)c3ncn(C[C@@H](O)CO)c(=O)c23)c(F)c1 [Example 16, (R)-3-(2,3-Dihydroxypropyl)-5-(4-ethynyl-2-fluorophenylamino)-6,8-dimethylpyrido[2,3-d]pyrimidine-4,7(3H,8H)-dione] | 7.82 to 8.30
6 | Cn1c(=O)c(F)c(Nc2ccc(I)cc2F)c2c(=O)n(C[C@H](O)CO)cnc21 [Example 19, (S)-3-(2,3-Dihydroxypropyl)-6-fluoro-5-(2-fluoro-4-iodophenylamino)-8-methylpyrido[2,3-d]pyrimidine-4,7(3H,8H)-dione] | ≥ 8.30
7 | Cn1c(=O)c(F)c(Nc2ccc(I)cc2F)c2c(=O)n(C(CO)CO)cnc21 [Example 25, 3-(1,3-Dihydroxypropan-2-yl)-6-fluoro-5-(2-fluoro-4-iodophenylamino)-8-methylpyrido[2,3-d]pyrimidine-4,7(3H,8H)-dione] | ≥ 8.30
8 | Cn1c(=O)c(F)c(Nc2ccc(I)cc2F)c2c(=O)n(OC[C@H](O)CO)cnc21 [Example 28, (R)-3-(2,3-Dihydroxypropoxy)-6-fluoro-5-(2-fluoro-4-iodophenylamino)-8-methylpyrido[2,3-d]pyrimidine-4,7(3H,8H)-dione] | ≥ 8.30
9 | Cn1c(=O)cc(Nc2ccc(Br)cc2Cl)c2c(=O)n(CCCO)cnc21 [Example 35, 5-(4-Bromo-2-chlorophenylamino)-3-(3-hydroxypropyl)-8-methylpyrido[2,3-d]pyrimidine-4,7(3H,8H)-dione] | ≤ 7.80
10 | CC(O)Cn1cnc2c(c(Nc3ccc(I)cc3F)cc(=O)n2C)c1=O (centres unmarked) [Example 38, 5-(2-Fluoro-4-iodophenylamino)-3-(2-hydroxypropyl)-8-methylpyrido[2,3-d]pyrimidine-4,7(3H,8H)-dione] | ≤ 7.80
11 | CC(O)Cn1cnc2c(c(Nc3ccc(I)cc3F)c(Cl)c(=O)n2C)c1=O (centres unmarked) [Example 40, 6-Chloro-5-(2-fluoro-4-iodophenylamino)-3-(2-hydroxypropyl)-8-methylpyrido[2,3-d]pyrimidine-4,7(3H,8H)-dione] | 7.82 to 8.30
12 | Cn1c(=O)cc(Nc2ccc(I)cc2F)c2c(=O)n(Cc3ccccc3)cnc21 [Example 42, 3-Benzyl-5-(2-fluoro-4-iodophenylamino)-8-methylpyrido[2,3-d]pyrimidine-4,7(3H,8H)-dione] | ≤ 7.80
13 | C#Cc1ccc(Nc2c(C)c(=O)n(C)c3ncn(C[C@H](O)CO)c(=O)c23)c(F)c1 [Example 44, (S)-3-(2,3-Dihydroxypropyl)-5-(4-ethynyl-2-fluorophenylamino)-6,8-dimethylpyrido[2,3-d]pyrimidine-4,7(3H,8H)-dione] | 7.82 to 8.30

The next lines start with the values.

Row | pIC50 | SMILES
14 | ≤ 7.80 | Cc1c(Nc2ccc(Br)cc2F)c2c(=O)n(CCO)cnc2n(C)c1=O [Example 11, 5-(4-Bromo-2-fluorophenylamino)-3-(2-hydroxyethyl)-6,8-dimethylpyrido[2,3-d]pyrimidine-4,7(3H,8H)-dione]
15 | ≥ 8.30 | Cc1c(Nc2ccc(I)cc2F)c2c(=O)n(CCO)cnc2n(C)c1=O [Example 14, 5-(2-Fluoro-4-iodophenylamino)-3-(2-hydroxyethyl)-6,8-dimethylpyrido[2,3-d]pyrimidine-4,7(3H,8H)-dione]
16 | ≤ 7.80 | Cc1c(Nc2ccccc2F)c2c(=O)n(CCO)cnc2n(C)c1=O [Example 15, 5-(2-Fluorophenylamino)-3-(2-hydroxyethyl)-6,8-dimethylpyrido[2,3-d]pyrimidine-4,7(3H,8H)-dione]
17 | ≥ 8.30 | Cn1c(=O)c(F)c(Nc2ccc(I)cc2F)c2c(=O)n(C[C@@H](O)CO)cnc21 [Example 18, (R)-3-(2,3-Dihydroxypropyl)-6-fluoro-5-(2-fluoro-4-iodophenylamino)-8-methylpyrido[2,3-d]pyrimidine-4,7(3H,8H)-dione]
18 | 7.82 to 8.30 | C#Cc1ccc(Nc2c(F)c(=O)n(C)c3ncn(C[C@H](O)CO)c(=O)c23)c(F)c1 [Example 21, (S)-3-(2,3-Dihydroxypropyl)-5-(4-ethynyl-2-fluorophenylamino)-6-fluoro-8-methylpyrido[2,3-d]pyrimidine-4,7(3H,8H)-dione]
19 | ≥ 8.30 | C#Cc1ccc(Nc2c(F)c(=O)n(C)c3ncn(C[C@@H](O)CO)c(=O)c23)c(F)c1 [Example 22, (R)-3-(2,3-dihydroxypropyl)-5-(4-ethynyl-2-fluorophenylamino)-6-fluoro-8-methylpyrido[2,3-d]pyrimidine-4,7(3H,8H)-dione]
20 | ≤ 7.80 | Cn1c(=O)c(F)c(Nc2ccc(NS(C)(=O)=O)cc2F)c2c(=O)n(C[C@@H](O)CO)cnc21 [Example 23, (R)—N-(4-(3-(2,3-Dihydroxypropyl)-6-fluoro-8-methyl-4,7-dioxo-3,4,7,8-tetrahydropyrido[2,3-d]pyrimidin-5-ylamino)-3-fluorophenyl)methanesulfonamide]
21 | 7.82 to 8.30 | Cn1c(=O)c(Cl)c(Nc2ccc(Br)cc2F)c2c(=O)n(C[C@@H](O)CO)cnc21 [Example 29, (R)-5-(4-Bromo-2-fluorophenylamino)-6-chloro-3-(2,3-dihydroxypropyl)-8-methylpyrido[2,3-d]pyrimidine-4,7(3H,8H)-dione]
22 | ≥ 8.30 | Cn1c(=O)c(Cl)c(Nc2ccc(I)cc2F)c2c(=O)n(CCO)cnc21 [Example 30, 6-Chloro-5-(2-fluoro-4-iodophenylamino)-3-(2-hydroxyethyl)-8-methylpyrido[2,3-d]pyrimidine-4,7(3H,8H)-dione]
23 | ≥ 8.30 | Cn1c(=O)cc(Nc2ccc(I)cc2F)c2c(=O)n(CCCO)cnc21 [Example 31, 5-(2-Fluoro-4-iodophenylamino)-3-(3-hydroxypropyl)-8-methylpyrido[2,3-d]pyrimidine-4,7(3H,8H)-dione]
24 | ≥ 8.30 | Cn1c(=O)c(Cl)c(Nc2ccc(I)cc2F)c2c(=O)n(CCCO)cnc21 [Example 32, 6-Chloro-5-(2-fluoro-4-iodophenylamino)-3-(3-hydroxypropyl)-8-methylpyrido[2,3-d]pyrimidine-4,7(3H,8H)-dione]
25 | ≤ 7.80 | Cn1c(=O)cc(Nc2ccc(Br)cc2F)c2c(=O)n(CCCO)cnc21 [Example 33, 5-(4-Bromo-2-fluorophenylamino)-3-(3-hydroxypropyl)-8-methylpyrido[2,3-d]pyrimidine-4,7(3H,8H)-dione]
26 | 7.82 to 8.30 | Cn1c(=O)c(Cl)c(Nc2ccc(Br)cc2F)c2c(=O)n(CCCO)cnc21 [Example 34, 5-(4-Bromo-2-fluorophenylamino)-6-chloro-3-(3-hydroxypropyl)-8-methylpyrido[2,3-d]pyrimidine-4,7(3H,8H)-dione]
27 | ≤ 7.80 | Cn1c(=O)c(Cl)c(Nc2ccc(Br)cc2Cl)c2c(=O)n(CCCO)cnc21 [Example 36, 5-(4-Bromo-2-chlorophenylamino)-6-chloro-3-(3-hydroxypropyl)-8-methylpyrido[2,3-d]pyrimidine-4,7(3H,8H)-dione]
28 | ≤ 7.80 | CN(C)CCn1cnc2c(c(Nc3ccc(I)cc3F)cc(=O)n2C)c1=O [Example 37, 3-(2-(Dimethylamino)ethyl)-5-(2-fluoro-4-iodophenylamino)-8-methylpyrido[2,3-d]pyrimidine-4,7(3H,8H)-dione]
29 | 7.82 to 8.30 | Cc1c(Nc2ccc(I)cc2F)c2c(=O)n(C(CO)CO)cnc2n(C)c1=O [Example 43, 3-(1,3-Dihydroxypropan-2-yl)-5-(2-fluoro-4-iodophenylamino)-6,8-dimethylpyrido[2,3-d]pyrimidine-4,7(3H,8H)-dione]
